Assay results published in the NIST ThermoML archive (doi:10.1021/je9002114).
Numbers after ± are expanded uncertainties. Blank lines part the entries; values can stand above or below the compound they belong to.

How the values were obtained:
[1] = xn = mol fraction of the nth substance listed; conditions: 298.15 K, Ring tensiometer
[2] = 298.15 K; for surface tension liquid-gas: Ring tensiometer; for mass density: 101.33 kPa, Liquid

Structure (SMILES): CCCCOC(C)=O [butyl ethanoate]
surface tension liquid-gas [2]: 24.85 ± 0.41 mN/m | mass density [2]: 876.38 ± 0.82 kg/m3

Structure (SMILES): C1COCCO1 [1,4-dioxane]
surface tension liquid-gas [2]: 32.71 ± 0.49 mN/m | mass density [2]: 1027.82 ± 0.6 kg/m3

Structure (SMILES): CCCCOC(C)=O [butyl ethanoate] + C1COCCO1
surface tension liquid-gas ([1]; x1 = 0.05): 31.19 ± 0.47 mN/m | surface tension liquid-gas ([1]; x1 = 0.0975): 30.51 ± 0.47 mN/m | surface tension liquid-gas ([1]; x1 = 0.1457): 29.87 ± 0.46 mN/m | surface tension liquid-gas ([1]; x1 = 0.1995): 29.32 ± 0.46 mN/m | surface tension liquid-gas ([1]; x1 = 0.2485): 28.88 ± 0.45 mN/m | surface tension liquid-gas ([1]; x1 = 0.2883): 28.55 ± 0.45 mN/m | surface tension liquid-gas ([1]; x1 = 0.3445): 28.13 ± 0.44 mN/m | surface tension liquid-gas ([1]; x1 = 0.3932): 27.79 ± 0.44 mN/m | surface tension liquid-gas ([1]; x1 = 0.4475): 27.47 ± 0.44 mN/m | surface tension liquid-gas ([1]; x1 = 0.4929): 27.21 ± 0.43 mN/m | surface tension liquid-gas ([1]; x1 = 0.5486): 26.93 ± 0.43 mN/m | surface tension liquid-gas ([1]; x1 = 0.592): 26.69 ± 0.43 mN/m | surface tension liquid-gas ([1]; x1 = 0.6429): 26.45 ± 0.43 mN/m | surface tension liquid-gas ([1]; x1 = 0.6933): 26.2 ± 0.42 mN/m | surface tension liquid-gas ([1]; x1 = 0.7466): 25.97 ± 0.42 mN/m | surface tension liquid-gas ([1]; x1 = 0.7954): 25.8 ± 0.42 mN/m | surface tension liquid-gas ([1]; x1 = 0.8438): 25.56 ± 0.42 mN/m | surface tension liquid-gas ([1]; x1 = 0.8901): 25.36 ± 0.41 mN/m | surface tension liquid-gas ([1]; x1 = 0.9419): 25.16 ± 0.41 mN/m

Second part, the compound after the results:

surface tension liquid-gas ([1]; x1 = 0.05): 34.9 ± 0.51 mN/m | surface tension liquid-gas ([1]; x1 = 0.0941): 34.08 ± 0.51 mN/m | surface tension liquid-gas ([1]; x1 = 0.1466): 33.24 ± 0.5 mN/m | surface tension liquid-gas ([1]; x1 = 0.198): 32.24 ± 0.49 mN/m | surface tension liquid-gas ([1]; x1 = 0.2452): 31.67 ± 0.48 mN/m | surface tension liquid-gas ([1]; x1 = 0.2909): 30.99 ± 0.47 mN/m | surface tension liquid-gas ([1]; x1 = 0.3496): 30.37 ± 0.47 mN/m | surface tension liquid-gas ([1]; x1 = 0.3978): 29.95 ± 0.46 mN/m | surface tension liquid-gas ([1]; x1 = 0.4481): 29.3 ± 0.46 mN/m | surface tension liquid-gas ([1]; x1 = 0.4998): 28.87 ± 0.45 mN/m | surface tension liquid-gas ([1]; x1 = 0.5453): 28.59 ± 0.45 mN/m | surface tension liquid-gas ([1]; x1 = 0.5998): 28.05 ± 0.44 mN/m | surface tension liquid-gas ([1]; x1 = 0.6445): 27.78 ± 0.44 mN/m | surface tension liquid-gas ([1]; x1 = 0.6901): 27.39 ± 0.44 mN/m | surface tension liquid-gas ([1]; x1 = 0.7499): 27.09 ± 0.43 mN/m | surface tension liquid-gas ([1]; x1 = 0.7958): 26.83 ± 0.43 mN/m | surface tension liquid-gas ([1]; x1 = 0.8477): 26.51 ± 0.43 mN/m | surface tension liquid-gas ([1]; x1 = 0.8965): 26.23 ± 0.42 mN/m | surface tension liquid-gas ([1]; x1 = 0.9397): 26.09 ± 0.42 mN/m
Structure (SMILES): CCCCCOC(C)=O [pentyl ethanoate] + CN(C)C=O

surface tension liquid-gas [2]: 26.39 ± 0.42 mN/m | mass density [2]: 868.52 ± 0.84 kg/m3
Structure (SMILES): CCCCCCOC(C)=O [hexyl ethanoate]

surface tension liquid-gas ([1]; x1 = 0.0495): 35.78 ± 0.52 mN/m | surface tension liquid-gas ([1]; x1 = 0.0964): 35.06 ± 0.52 mN/m | surface tension liquid-gas ([1]; x1 = 0.1435): 34.43 ± 0.51 mN/m | surface tension liquid-gas ([1]; x1 = 0.198): 33.72 ± 0.5 mN/m | surface tension liquid-gas ([1]; x1 = 0.2432): 33.16 ± 0.5 mN/m | surface tension liquid-gas ([1]; x1 = 0.299): 32.51 ± 0.49 mN/m | surface tension liquid-gas ([1]; x1 = 0.349): 31.96 ± 0.48 mN/m | surface tension liquid-gas ([1]; x1 = 0.397): 31.46 ± 0.48 mN/m | surface tension liquid-gas ([1]; x1 = 0.444): 31.02 ± 0.47 mN/m | surface tension liquid-gas ([1]; x1 = 0.4969): 30.57 ± 0.47 mN/m | surface tension liquid-gas ([1]; x1 = 0.5461): 30.12 ± 0.46 mN/m | surface tension liquid-gas ([1]; x1 = 0.5945): 29.72 ± 0.46 mN/m | surface tension liquid-gas ([1]; x1 = 0.6434): 29.35 ± 0.46 mN/m | surface tension liquid-gas ([1]; x1 = 0.6908): 29.01 ± 0.45 mN/m | surface tension liquid-gas ([1]; x1 = 0.7457): 28.61 ± 0.45 mN/m | surface tension liquid-gas ([1]; x1 = 0.7896): 28.31 ± 0.44 mN/m | surface tension liquid-gas ([1]; x1 = 0.8466): 27.99 ± 0.44 mN/m | surface tension liquid-gas ([1]; x1 = 0.8951): 27.67 ± 0.44 mN/m | surface tension liquid-gas ([1]; x1 = 0.9494): 27.41 ± 0.44 mN/m
Structure (SMILES): CCCCCCOC(C)=O [hexyl ethanoate] + CN(C)C=O

surface tension liquid-gas [2]: 25.21 ± 0.41 mN/m | mass density [2]: 870.17 ± 0.83 kg/m3
Structure (SMILES): CCCCCOC(C)=O [pentyl ethanoate]
